{
  "source": "patent US9540377B2",
  "about": "“2,6,7,8 substituted purines as HDM2 inhibitors” (Merck Sharp & Dohme Corp., priority 2013, dated 2017)",
  "data": [
    {"target": "HDM2 (truncated, residues 17 to 125, containing p53 binding surface) (Homo sapiens (Human), UniProt Q00987)", "sequence (Q00987 17-125)": "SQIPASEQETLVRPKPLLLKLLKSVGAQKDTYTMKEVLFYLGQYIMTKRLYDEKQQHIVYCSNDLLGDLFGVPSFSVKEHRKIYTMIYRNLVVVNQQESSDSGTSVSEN", "assay": "HDM2 FRET assay (inhibition of binding of FITC labeled p53-site peptide to HDM2)", "conditions": "Table 16", "excerpt": "(§1) IC50 DETERMINATIONS: Dose-response curves were plotted from the inhibition data, from 10 point serial dilutions of inhibitory compounds. Concentration of compound was plotted against em520/Cem495 ratio signal. To generate IC50 values, the dose-response curves were fitted to a standard sigmoidal curve and IC50 values were derived by nonlinear regression analysis.", "units": {"IC50": "nM"}, "values": [
      {"smiles": "CO[C@H]1CCN(c2nc3nc(-c4n[nH]c(=O)o4)nc(-c4cncc(Cl)c4)c3n2C[C@H]2CC[C@H](C)CC2)[C@@H](C)C1", "note": "(racemic) [Example 16.154, 5-{6-(5-chloropyridin-3-yl)-8-[(cis)-4-methoxy-2-methylpiperidin-1-yl]-7-[(trans-4-methylcyclohexyl)methyl]-7H-purin-2-yl}-1,3,4-oxadiazol-2(3H)-one]", "IC50": 67.2},
      {"smiles": "C[C@H]1CC[C@H](Cn2c(N3CCCC4COCCC43)nc3nc(-c4n[nH]c(=O)o4)nc(-c4cncc(Cl)c4)c32)CC1", "note": "(single isomer, unassigned) [Example 16.122, 5-{6-(5-chloropyridin-3-yl)-8-(hexahydro-2H-pyrano[4,3-b]pyridin-1(5H)-yl)-7-[(trans-4-methylcyclohexyl)methyl]-7H-purin-2-yl}-1,3,4-oxadiazol-2(3H)-one]", "IC50": 203},
      {"smiles": "Cc1noc(C2CCCN2c2nc3nc(C(=O)O)nc(-c4cncc(Cl)c4)c3n2C[C@H]2CC[C@H](C)CC2)n1", "note": "(mixture of isomers) [Example 16.145, 6-(5-chloropyridin-3-yl)-7-[(trans-4-methylcyclohexyl)methyl]-8-[2-(3-methyl-1,2,4-oxadiazol-5-yl)pyrrolidin-1-yl]-7H-purine-2-carboxylic acid]", "IC50": 3.92},
      {"smiles": "Cc1nnc(C2CCCN2c2nc3nc(-c4noc(=O)[nH]4)nc(-c4cncc(Cl)c4)c3n2C[C@H]2CC[C@H](C)CC2)o1", "note": "(mixture of isomers) [Example 16.141, 3-{6-(5-chloropyridin-3-yl)-7-[(trans-4-methylcyclohexyl)methyl]-8-[2-(5-methyl-1,3,4-oxadiazol-2-yl)pyrrolidin-1-yl]-7H-purin-2-yl}-1,2,4-oxadiazol-5(4H)-one]", "IC50": 26.8},
      {"smiles": "C[C@H]1CC[C@H](Cn2c(N3CCOC4CCCCC43)nc3nc(-c4noc(=O)[nH]4)nc(-c4cccc(Cl)c4)c32)CC1", "note": "(single isomer, unassigned) [Example 16.78, 3-(6-(3-chlorophenyl)-7-[(trans-4-methylcyclohexyl)methyl]-8-(octahydro-4H-1,4-benzoxazin-4-yl)-7H-purin-2-yl]-1,2,4-oxadiazol-5(4H)-one]", "IC50": 1.4}
    ]},
    {"target": "HDM2 (truncated, residues 17 to 125, containing p53 binding surface) (Homo sapiens (Human), UniProt Q00987)", "assay": "HDM2 FRET assay (inhibition of binding of FITC labeled p53-site peptide to HDM2)", "conditions": "Table 18", "excerpt": "as §1", "units": {"IC50": "nM"}, "values": [
      {"smiles": "CC([C@H]1CC[C@H](C)CC1)n1c(N2CCOC3CCCC32)nc2nc(-c3noc(=O)[nH]3)nc(-c3cncc(Cl)c3)c21", "note": "(single isomer, unassigned) [Example 18.52, 3-{6-(5-chloropyridin-3-yl)-8-(hexahydrocyclopenta[b][1,4]oxazin-4(4aH)-yl)-7-[1-(trans-4-methylcyclohexyl)ethyl]-7H-purin-2-yl}-1,2,4-oxadiazol-5(4H)-one]", "IC50": 5.44},
      {"smiles": "CC(C)c1ccnc(-c2nc3nc(-c4noc(=O)[nH]4)nc(N[C@H](C)C4CCC4)c3n2C[C@@H]2CC[C@@H](C)C(F)(F)C2)c1", "note": "(stereo in doubt) [Example 18.11, 3-(6-(((R)-1-cyclobutylethyl)amino)-7-((trans-3,3-difluoro-4-methylcyclohexyl)methyl)-8-(4-isopropylpyridin-2-yl)-7H-purin-2-yl)-1,2,4-oxadiazol-5(4H)-one]", "IC50": 2.79}
    ]},
    {"target": "HDM2 (truncated, residues 17 to 125, containing p53 binding surface) (Homo sapiens (Human), UniProt Q00987)", "assay": "HDM2 FRET assay (inhibition of binding of FITC labeled p53-site peptide to HDM2)", "conditions": "Table 23", "excerpt": "as §1", "units": {"IC50": "nM"}, "values": [
      {"smiles": "CC(F)(c1ccccn1)c1nc2nc(-c3n[nH]c(=O)o3)nc(-c3cccc(Cl)c3)c2n1C[C@H]1CC[C@H](C)CC1", "note": "(single isomer, unassigned) [Example 23.37, 5-{6-(3-chlorophenyl)-8-[1-fluoro-1-(pyridin-2-yl)ethyl]-7-[{trans-4-methylcyclohexyl)methyl]-7H-purin-2-yl}-1,3,4-oxadiazol-2(3H)-one]", "IC50": 9.65},
      {"smiles": "CC(c1ccccc1C#N)c1nc2nc(-c3noc(=O)[nH]3)nc(-c3cncc(Cl)c3)c2n1C[C@H]1CC[C@H](C)CC1", "note": "(mixture of isomers) [Example 23.116, 2-{1-[6-(5-chloropyridin-3-yl)-7-[(trans-4-methylcyclohexyl)methyl]-2-(5-oxo-4,5-dihydro-1,2,4-oxadiazol-3-yl)-7H-purin-8-yl]ethyl}benzonitrile]", "IC50": 2.38},
      {"smiles": "COc1ccccc1C(C)(F)c1nc2nc(-c3noc(=O)[nH]3)nc(-c3cncc(Cl)c3)c2n1C[C@H]1CC[C@H](C)CC1", "note": "(single isomer, unassigned) [Example 23.27, 3-{6-(5-chloropyridin-3-yl)-8-[1-fluoro-1-(2-methoxyphenyl)ethyl]-7-[(trans-4-methylcyclohexyl)methyl]-7H-purin-2-yl}-1,2,4-oxadiazol-5(4H)-one]", "IC50": 1.62},
      {"smiles": "COC(C)(c1ccccc1F)c1nc2nc(-c3noc(=O)[nH]3)nc(-c3cncc(Cl)c3)c2n1C[C@H]1CC[C@H](C)CC1", "note": "(single isomer, unassigned) [Example 23.50, 3-{6-(5-chloropyridin-3-yl)-8-[1-(2-fluorophenyl)-1-methoxyethyl]-7-[(trans-4-methylcyclohexyl)methyl]-7H-purin-2-yl}-1,2,4-oxadiazol-5(4H)-one]", "IC50": 6.55},
      {"smiles": "CC(C)(C)C(C)(F)c1nc2nc(-c3noc(=O)[nH]3)nc(-c3cncc(Cl)c3)c2n1C[C@H]1CC[C@H](C)CC1", "note": "(mixture of isomers) [Example 23.91, 3-{6-(5-chloropyridin-3-yl)-8-(1-fluoro-1,2,2-trimethylpropyl)-7-[(trans-4-methylcyclohexyl)methyl]-7H-purin-2-yl}-1,2,4-oxadiazol-5(4H)-one]", "IC50": 13},
      {"smiles": "CC(F)(c1ncccc1F)c1nc2nc(-c3n[nH]c(=O)o3)nc(-c3cncc(Cl)c3)c2n1C[C@H]1CC[C@H](C)CC1", "note": "(single isomer, unassigned) [Example 23.85, 5-{6-(5-chloropyridin-3-yl)-8-[1-fluoro-1-(3-fluoropyridin-2-yl)ethyl]-7-[(trans-4-methylcyclohexyl)methyl]-7H-purin-2-yl}-1,3,4-oxadiazol-2(3H)-one]", "IC50": 0.359},
      {"smiles": "COC(C)(c1c(F)cccc1F)c1nc2nc(-c3n[nH]c(=O)o3)nc(-c3cncc(Cl)c3)c2n1C[C@H]1CC[C@H](C)CC1", "note": "(single isomer, unassigned) [Example 23.89, 5-{6-(5-chloropyridin-3-yl)-8-[1-(2,6-difluorophenyl)-1-methoxyethyl]-7-[(trans-4-methylcyclohexyl)methyl]-7H-purin-2-yl}-1,3,4-oxadiazol-2(3H)-one]", "IC50": 5.12},
      {"smiles": "CC(F)(c1ccccn1)c1nc2nc(-c3n[nH]c(=O)o3)nc(-c3cccc(Cl)c3)c2n1C[C@H]1CC[C@H](C)CC1", "note": "(single isomer, unassigned) [Example 23.36, 5-{6-(3-chlorophenyl)-8-[1-fluoro-1-(pyridin-2-yl)ethyl]-7-[(trans-4-methylcyclohexyl)methyl]-7H-purin-2-yl}-1,3,4-oxadiazol-2(3H)-one]", "IC50": 9.68},
      {"smiles": "CC(F)(c1ccccc1F)c1nc2nc(-c3noc(=O)[nH]3)nc(-c3cncc(Cl)c3)c2n1C[C@H]1CC[C@H](C)CC1", "note": "(single isomer, unassigned) [Example 23.35, 3-{6-(5-chloropyridin-3-yl)-8-[1-fluoro-1-(2-fluorophenyl)ethyl]-7-[(trans-4-methylcyclohexyl)methyl] 7H-purin-2-yl}-1,2,4-oxadiazol-5(4H)-one]", "IC50": 0.424},
      {"smiles": "C[C@H]1CC[C@H](Cn2c(C3(F)CCOc4cccnc43)nc3nc(-c4n[nH]c(=O)o4)nc(-c4cncc(Cl)c4)c32)CC1", "note": "(mixture of isomers) [Example 23.92, 5-{6-(5-chloropyridin-3-yl)-8-(4-fluoro-3,4-dihydro-2H-pyrano[3,2-b]pyridin-4-yl)-7-[(trans-4-methylcyclohexyl)methyl]-7H-purin-2-yl}-1,3,4-oxadiazol-2(3H)-one]", "IC50": 2.45},
      {"smiles": "CC(F)(c1ccccn1)c1nc2nc(-c3noc(=O)[nH]3)nc(-c3cccc(Cl)c3)c2n1C[C@H]1CC[C@H](C)CC1", "note": "(single isomer, unassigned) [Example 23.30, 3-{6-(3-chlorophenyl)-8-(1-fluoro-1-pyridin-2-ylethyl)-7-[(trans-4-methylcyclohexyl)methyl]-7H-purin-2-yl}-1,2,4-oxadiazol-5(4H)-one]", "IC50": 6.7},
      {"smiles": "CC(F)(c1ccccc1F)c1nc2nc(-c3n[nH]c(=O)o3)nc(-c3cncc(Cl)c3)c2n1C[C@H]1CC[C@H](C)CC1", "note": "(single isomer, unassigned) [Example 23.32, 5-{6-(5-chloropyridin-3-yl)-8-[1-fluoro-1-(2-fluorophenyl)ethyl]-7-[(trans-4-methylcyclohexyl)methyl]-7H-purin-2-yl}-1,3,4-oxadiazol-2(3H)-one]", "IC50": 16},
      {"smiles": "COC(C)(c1ncccc1F)c1nc2nc(-c3n[nH]c(=O)o3)nc(-c3cncc(Cl)c3)c2n1C[C@H]1CC[C@H](C)CC1", "note": "(single isomer, unassigned) [Example 23.86, 5-{6-(5-chloropyridin-3-yl)-8-[1-(3-fluoropyridin-2-yl)-1-methoxyethyl]-7-[(trans-4-methylcyclohexyl)methyl]-7H-purin-2-yl}-1,3,4-oxadiazol-2(3H)-one]", "IC50": 0.675},
      {"smiles": "COC1(c2nc3nc(-c4n[nH]c(=O)o4)nc(-c4cncc(Cl)c4)c3n2C[C@H]2CC[C@H](C)CC2)CCOc2cccnc21", "note": "(mixture of isomers) [Example 23.90, 5-{6-(5-chloropyridin-3-yl)-8-(4-methoxy-3,4-dihydro-2H-pyrano[3,2-b]pyridin-4-yl)-7-[(trans-4-methylcyclohexyl)methyl]-7H-purin-2-yl}-1,3,4-oxadiazol-2(3H)-one]", "IC50": 7.41},
      {"smiles": "CC(F)(c1c(F)cccc1F)c1nc2nc(-c3n[nH]c(=O)o3)nc(-c3cncc(Cl)c3)c2n1C[C@H]1CC[C@H](C)CC1", "note": "(single isomer, unassigned) [Example 23.80, 5-{6-(5-chloropyridin-3-yl)-8-[1-(2,6-difluorophenyl)-1-fluoroethyl]-7-[(trans-4-methylcyclohexyl)methyl]-7H-purin-2-yl}-1,3,4-oxadiazol-2(3H)-one]", "IC50": 10.7},
      {"smiles": "COc1ccccc1C(C)(F)c1nc2nc(-c3noc(=O)[nH]3)nc(-c3cncc(Cl)c3)c2n1C[C@H]1CC[C@H](C)CC1", "note": "(single isomer, unassigned) [Example 23.26, 3-{6-(5-chloropyridin-3-yl)-8-[1-fluoro-1-(2-methoxyphenyl)ethyl]-7-[(trans-4-methylcyclohexyl)methyl]-7H-purin-2-yl}-1,2,4-oxadiazol-5(4H)-one]", "IC50": 5.37}
    ]}
  ]
}
